According to patent publication US10738093B2, “Discovery of cationic nonribosomal peptides as Gram-negative antibiotics through global genome mining” (The Hong Kong University of Science and Technology, priority 2018, dated 2020):
Values after ≈ are worked out from the molar mass of the structure shown. Read-outs that look alike come from different tables or passages of the source. Positions of bridges follow the written chain, without caps; N, C: chain ends. Non-standard residues stand in square brackets, D forms with d. Residues, ends and D or L forms follow the SMILES beside them. *: point of attachment. Octanoyl(7-Me) = CC(C)CCCCCC(=O)*; aThr = C[C@H](O)[C@H](N)C(=O)O; dOrn = NCCC[C@@H](N)C(=O)O; Orn = NCCC[C@H](N)C(=O)O

Legend:
[1] = system: Escherichia coli ATCC 25922; assay: microbe, parasite or virus in culture; assay type: cell-based
Method: (§1) Minimum inhibitory concentration (MIC) was determined by broth microdilution according to CLSI guidelines. The test medium for most species was Mueller-Hinton broth (MHB). Bacteria were grown overnight to early stationary phase and adjusted in MHB to 5.0×10^5 colony-forming units per mL (c.f.u./mL) in the wells of 96-well microtiter plates, mixed with varying concentrations of test compounds and incubated at 37° C. for 24 h. […] MHBs containing 10% fetal bovine serum (Gibco), 21 mM MgCl, or 1.0 mg/ml LPS (lipopolysaccharides from Escherichia coli O55:B5, Sigma-Aldrich) were used to test their inhibitory effects.

[2] = system: Colistin-resistant E. coli (E. coli ATCC 25922 carrying mcr-1); assay type: cell-based, Escherichia coli
Method: as §1

E. coli Top10 [3] = assay type: cell-based, Escherichia coli
Method: as §1

Acinetobacter baumannii = assay type: cell-based
Method: as §1

Bacillus subtilis 168 = assay type: cell-based
Method: as §1

Candida albicans = assay type: cell-based; details: for MIC Ca: Table 2
Method: as §1

[4] = system: Enterobacter cloacae NRRL-B-413; assay type: cell-based
Method: as §1

[5] = system: Klebsiella pneumoniae NRRL-B-408; assay type: cell-based
Method: as §1

[6] = system: Methicillin-resistant Staphylococcus aureus ATCC 43300; assay type: cell-based; details: for MIC MRSA: Table 2, Methicillin-resistant Staphylococcus aureus ATCC 43300
Method: as §1

[7] = system: Pseudomonas aeruginosa PAO1; assay type: cell-based
Method: as §1

[8] = system: K. pneumoniae NRRL-B-3521; assay type: cell-based, Klebsiella pneumoniae
Method: as §1

E. cloacae NRRL-B-425 = assay type: cell-based, Enterobacter cloacae
Method: as §1

[9] = system: Saccharomyces cerevisiae VL-48; assay: MIC, Saccharomyces cerevisiae; assay type: cell-based; details: for MIC: Saccharomyces cerevisiae; for MIC Sc: Table 2, Saccharomyces cerevisiae VL-48
Method: as §1

E. coli Top10 [10] = assay: Time-kill assay; assay type: cell-based, Escherichia coli
Method: An overnight culture of E. coli Top10 or Pseudomonas aeruginosa PAO1 cells was diluted 1:10,000 in MHB and incubated at 37° C. with agitation at 180 rpm for 2 h (early exponential). The bacteria were then challenged with antibiotics at 10×MIC, brevicidine (20 μg/ml), laterocidine (20 μg/ml) or polymyxin B (10 μg/ml) at room temperature without shaking. An untreated sample of cells was used as a negative control. At intervals, 10 μL aliquots were removed, centrifuged at 10,000 g for 1 min and resuspended in 1.0 mL of sterile PBS. Tenfold-serially-diluted suspensions were plated on MHB agar plates and incubated at 37° C. overnight. Colonies were counted and the number of c.fu. per mL was calculated. For analysis of lysis, 300 μL of culture (OD600=1.0) were treated with 10×MIC of antibiotics for 24 h. Experiments were performed in triplicate.

E. coli Top10 [11] = assay: Bacterial growth kinetics; assay type: cell-based, Escherichia coli; details: E. coli cells exposed to compound
Method: A fresh single colony of E. coli Top10 was inoculated into MHB (5 mL) and grown with shaking at 225 rpm overnight. The bacteria were diluted to 1×10^5 c.f.u./mL in fresh MHB, grown […] to early log-phase (OD=0.15) and treated with the antibiotics of interest in the wells of a 96-well plate. Final antibiotic concentrations varied from 1×MIC to 8×MIC. The plate was then incubated at 30° C. overnight, with OD 600 measurements taken every 30 seconds.

[12] = system: Escherichia coli ATCC 25922; assay: Resistance acquisition during serial passaging; assay type: cell-based; details: serial passaging at subinhibitory concentrations over 30 days
Method: Escherichia coli ATCC 25922 was inoculated into MHB overnight at 37° C. with continuous shaking. Cells were diluted 10,000 times in MHB to about 1×10^6 c.f.u./mL. […] Plates with bacteria were incubated at 37° C. without shaking. […] This process was repeated for 30 d, and the final MIC was confirmed by the same antibacterial assay described above. The experiment was performed in quadruplicate, and on each day, the sample that developed the highest resistance was measured to plot the curve.

E. coli ATCC 25922 [13] = assay: Atomic force microscopy of treated E. coli; assay type: cell-based, Escherichia coli; details: E. coli ATCC25922, 10×MIC
Method: (§2) The samples were then centrifuged at 8000 g for 10 min at 4° C., and the pellet was washed twice in 100 lpL of apyrogenic water. The bacteria resuspended in 50 μL of apyrogenic water were applied to mica disks and dried overnight at 28° C. before imaging. Atomic force micrographs were recorded on a Veeco Mulitmode AFM with NanoScope III controller operating in contact mode. The data were analyzed with NanoScope Analysis software v.1.40 (Veeco, USA). Scans were acquired at 25° C. at the rates of 1.0 Hz and 256 samples per line resolution. Downstream image processing and analysis were performed using NanoScope software (Bruker). Height images were flattened to compensate for cell curvature, and topographical sections were used to generate two-dimensional reconstructions of surface texture.

P. aeruginosa PAO1 = assay: Atomic force microscopy of treated P. aeruginosa; assay type: cell-based, Pseudomonas aeruginosa
Method: as §2

E. coli ATCC 25922 [14] = assay: Neutropenic mouse thigh infection model; assay type: in vivo, Escherichia coli; details: brevicidine 30 mg/kg or laterocidine 15 mg/kg, 2 times, after 26 h
Method: In vivo activities of brevicidine and laterocidine were tested using the mouse thigh infection model. Animal studies were performed by Pharmacology Discovery Services Taiwan Ltd. (Taipei, Taiwan) in general accordance with standard guidelines on animal welfare in an AAALAC-accredited facility. The protocol was reviewed and approved by the Institutional Animal Care and Use Committee. Groups of five female specific-pathogen-free ICR (CD-1) mice weighing 22±2 g (˜5 weeks of age) were used. Animals were immunosuppressed with two intraperitoneal injections of cyclophosphamide, the first at 150 mg/kg 4 d before infection (day −4) and the second at 100 mg/kg 1 d before infection (day −1). On day 0, animals were inoculated intramuscularly (0.1 ml/thigh) in the right thigh with an E. coli ATCC 25922 suspension. Vehicle (10% DMSO, 1% Tween 80, 0.9% NaCl) and antibiotics were then subcutaneously injected 2 h and 8 h later. Due to limited amount of compounds 1-2, only one concentration of 1(30 mg/kg) or 2 (15 mg/kg) was used in this study. At 26 h after inoculation, animals were euthanized by CO2 asphyxiation before the muscle of the right thigh was harvested from each test animal. The removed muscle was homogenized in 5 mL of PBS, pH 7.4, with a polytron homogenizer. Homogenates in the amount of 0.1 mL were used for serial tenfold dilutions and plated onto a nutrient agar medium for colony count (c.f.u./g) determination.

[15] = LPS binding by isothermal titration calorimetry; set-up: species or system Escherichia coli; details: ITC, FIGS. 18a-18b
Method: Microcalorimetric experiments of peptide binding to LPS were performed on an MCS isothermal titration calorimeter (ITC) (Microcal, Northampton, Mass.) at 37° C. LPS was prepared as a 50 μM aqueous suspension in 20 mM HEPES (pH 7.0) buffer by suspension, sonication and temperature cycling between 5° C. and 70° C. This suspension was stored at 4° C. overnight prior to use. 100 μM peptide solutions (brevicidine and polymyxin B) were prepared in the same buffer and all solutions were degassed prior to use by stirring under vacuum for 5 min at 37° C. After thermal equilibration, 5 μL aliquots of the peptide solution were added every 3 min into the lipid-containing cell at 37° C. and stirred constantly. The change in heat during the titration steps was registered in real time and raw data were processed using the Origin® 7 software provided with the instrument. In control experiments, the corresponding peptide solution (or LPS solution) was injected into the buffer without LPS (or without peptide).

CC[C@H](C)[C@@H]1NC(=O)[C@@H](NC(=O)[C@H](Cc2c[nH]c3ccccc23)NC(=O)[C@@H](CCCN)NC(=O)CNC(=O)[C@H](CCCN)NC(=O)[C@@H](CCCN)NC(=O)[C@@H](Cc2c[nH]c3ccccc23)NC(=O)[C@@H](Cc2ccc(O)cc2)NC(=O)[C@@H](CO)NC(=O)CCCCCC(C)C)[C@H](C)OC(=O)CNC(=O)CNC(=O)[C@H](CC(N)=O)NC1=O [Compound 2, 7-Methyl-Octanoyl-D-Ser-D-Tyr-D-Trp-D-Orn-Orn-Gly-D-Orn-Trp-Thr-Ile-Asn-Gly-Gly (cyclized via lactone formation between Thr and the C-terminus)] ({Octanoyl(7-Me)}-[dS][dY][dW][dOrn][Orn]G[dOrn]W[aThr]INGG; ester 9-C)
MIC ([1]; ATCC 25922): 2 µg/mL (≈ 1.25 µM)
MIC Ec ([1]; ATCC 25922): 2 µg/mL (≈ 1.25 µM)
MIC [2]: 2 µg/mL (≈ 1.25 µM)
MIC (E. coli Top10 [3]; Top10): 2 µg/mL (≈ 1.25 µM)
MIC (Acinetobacter baumannii): 4 µg/mL (≈ 2.49 µM)
MIC Ab (Acinetobacter baumannii): 4 µg/mL (≈ 2.49 µM)
MIC (Bacillus subtilis 168; 168): 32 µg/mL (≈ 19.9 µM)
MIC Bs (Bacillus subtilis 168; 168): 32 µg/mL (≈ 19.9 µM)
MIC (Candida albicans): >64 µg/mL
MIC Ca (Candida albicans; Candida albicans): ND (ND >64 μg/ml)
MIC ([4]; NRRL-B-413): 2 µg/mL (≈ 1.25 µM)
MIC En ([4]; NRRL-B-413): 2 µg/mL (≈ 1.25 µM)
MIC ([5]; NRRL-B-408): 4 µg/mL (≈ 2.49 µM)
MIC ([6]; ATCC 43300): >64 µg/mL
MIC MRSA [6]: ND (ND >64 μg/ml)
MIC ([7]; PAO1): 2 µg/mL (≈ 1.25 µM)
MIC Pa ([7]; PAO1): 2 µg/mL (≈ 1.25 µM)
MIC ([8]; NRRL-B-3521): 4 µg/mL (≈ 2.49 µM)
MIC (E. cloacae NRRL-B-425; NRRL-B-425): 3 µg/mL (≈ 1.87 µM)
MIC [9]: >64 µg/mL
MIC Sc [9]: ND (ND >64 μg/ml)
time of exposure to significant reduction of viable cells (E. coli Top10 [10]; 10 times the MIC): 30 min
time of exposure to slightly reduced cell viability (E. coli Top10 [10]; 10 times the MIC): 15 min
bactericidal against E. coli (E. coli Top10 [10]; growth kinetics, time-kill assay and lysis assay): bactericidal
time of growth at a reduced rate before steady decrease in cell count (E. coli Top10 [11]): 30 min
development of resistance [12]: development of resistance was not observed
cell morphology by AFM (E. coli ATCC 25922 [13]): lost their regular rod-like shape and became lumpy and rugged
cell morphology by AFM (P. aeruginosa PAO1): lost their regular rod-like shape and became lumpy and rugged
bactericidal efficacy in mouse thigh infection (viable bacteria) (E. coli ATCC 25922 [14]): reduced numbers of viable bacteria

polymyxin B [reference compound]
MIC ([1]; E. coli ATCC 25922 + 10% serum): 1 to 2 µg/mL
MIC ([1]; E. coli ATCC 25922 + LPS (1.0 mg L^−1)): >64 µg/mL
MIC ([1]; E. coli ATCC 25922 + Mg^2+ (21 mM)): >64 µg/mL
MIC ([1]; Escherichia coli ATCC 25922): 1 µg/mL
MIC Ec ([1]; Table 2, Escherichia coli ATCC 25922): 1 µg/mL
MIC [2]: 16 µg/mL
MIC (E. coli Top10 [3]; E. coli Top10): 2 µg/mL
MIC (Acinetobacter baumannii; Acinetobacter baumannii): 4 µg/mL
MIC Ab (Acinetobacter baumannii; Table 2, Acinetobacter baumannii): 4 µg/mL
MIC (Bacillus subtilis 168; Bacillus subtilis 168): 4 µg/mL
MIC Bs (Bacillus subtilis 168; Table 2, B. subtilis 168): 4 µg/mL
MIC (Candida albicans; Candida albicans): >64 µg/mL
MIC Ca (Candida albicans; Candida albicans): ND (ND >64 μg/ml)
MIC ([4]; Enterobacter cloacae NRRL-B-413): 8 µg/mL
MIC En ([4]; Table 2, Enterobacter cloacae NRRL-B-413): 8 µg/mL
MIC ([5]; Klebsiella pneumoniae NRRL-B-408): 16 µg/mL
MIC ([6]; Staphylococcus aureus (MRSA)): 32 µg/mL
MIC MRSA [6]: 32 µg/mL
MIC ([7]; Pseudomonas aeruginosa PAO1): 1 µg/mL
MIC Pa ([7]; Table 2, Pseudomonas aeruginosa PAO1): 1 µg/mL
MIC ([8]; K. pneumoniae NRRL-B-3521): 2 µg/mL
MIC (E. cloacae NRRL-B-425; E. cloacae NRRL-B-425): 64 µg/mL
MIC [9]: >64 µg/mL
MIC Sc [9]: ND (ND >64 μg/ml)
time of exposure to significant reduction of viable cells (E. coli Top10 [10]; 10 times the MIC): 5 min
time to killing all cells (E. coli Top10 [10]; 10 times the MIC): ≤ 30 min
binding to LPS [15]: strong binding to LPS
